Experimental findings from publication PMC6692420, “Validation of [^125I]CPCR4.3 as an investigative tool for the sensitive and specific detection of hCXCR4 and mCXCR4 expression in vitro and in vivo” (EJNMMI Research, 2019) are described below.

The target of one test is T1, hCXCR4 (Homo sapiens, UniProt P61073).
T1 construct: endogenous hCXCR4 (Jurkat); endogenous in cells
Nature of the test: Competitive binding assay (IC50) on Jurkat cells with [^125I]CPCR4.3 as radioligand. Conditions: for IC50: Jurkat human T cell leukemia cells, 200,000 cells/sample, radioligand [^125I]CPCR4.3. How it is done:
To allow data normalization, [^natGa] […] Experiments were performed in triplicate with n = 3 per concentration in each experiment. IC50 values were calculated using GraphPad Prism 6.01 (Graph Pad Software, San Diego, USA).

In a further test the target is T2, mCXCR4 (Mus musculus, UniProt P70658).
T2 construct: endogenous in cells; host or cells: Eμ-myc 1080 mouse B cell lymphoma cells
Nature of the test: Competitive binding assay (IC50) on Eμ-Myc 1080 mouse lymphoma cells with [^125I]CPCR4.3 as radioligand. Particulars: Eμ-Myc1080 mouse B cell lymphoma cells, 200,000 cells/sample, radioligand [^125I]CPCR4.3. How it is done: To allow data normalization, [^natGa] Pentixafor and FC-131 were included as references in this study. Experiments were performed in triplicate with n = 3 per concentration in each experiment. IC50 values were calculated using GraphPad Prism 6.01 (Graph Pad Software, San Diego, USA).

Non-standard residues stand in square brackets, D forms with d. Residues, ends and D or L forms follow the SMILES beside them. dAla(N-(6-guanidinohexyl)) = C[C@@H](NCCCCCCNC(=N)N)C(=O)O; dTyr(3-I) = N[C@H](Cc1ccc(O)c(I)c1)C(=O)O; 2Nal = N[C@@H](Cc1ccc2ccccc2c1)C(=O)O

T1 sequence (P61073 whole entry): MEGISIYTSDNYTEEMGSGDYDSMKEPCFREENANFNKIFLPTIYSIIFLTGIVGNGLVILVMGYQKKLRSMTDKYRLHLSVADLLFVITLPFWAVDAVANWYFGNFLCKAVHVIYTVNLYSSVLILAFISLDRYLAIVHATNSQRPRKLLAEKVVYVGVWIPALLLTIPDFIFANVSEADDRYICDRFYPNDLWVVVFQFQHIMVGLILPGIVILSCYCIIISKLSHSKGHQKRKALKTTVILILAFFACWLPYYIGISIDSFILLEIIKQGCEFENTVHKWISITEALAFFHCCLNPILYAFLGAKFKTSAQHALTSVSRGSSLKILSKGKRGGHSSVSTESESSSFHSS
T2 sequence (P70658 whole entry): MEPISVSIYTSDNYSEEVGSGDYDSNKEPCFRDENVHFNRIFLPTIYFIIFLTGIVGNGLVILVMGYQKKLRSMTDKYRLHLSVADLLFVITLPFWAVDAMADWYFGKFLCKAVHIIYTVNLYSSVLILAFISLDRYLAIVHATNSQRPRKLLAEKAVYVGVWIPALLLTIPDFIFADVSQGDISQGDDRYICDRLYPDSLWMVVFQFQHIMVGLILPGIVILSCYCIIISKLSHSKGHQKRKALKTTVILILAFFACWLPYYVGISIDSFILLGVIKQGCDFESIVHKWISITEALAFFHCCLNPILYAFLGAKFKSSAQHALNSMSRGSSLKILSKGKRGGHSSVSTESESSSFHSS

As for `C[C@@H]1C(=O)N[C@@H](CCCNC(=N)N)C(=O)N[C@@H](Cc2ccc3ccccc3c2)C(=O)NCC(=O)N[C@H](Cc2ccc(O)cc2)C(=O)N1CCCCCCNC(=N)N` [CPCR4.3, cyclo(-D-Tyr^1-D-[N-hexyl-6-guanidino]Ala^2-Arg^3-Nal^4-Gly^5-)] (cyclo([dY][dAla(N-(6-guanidinohexyl))]R[2Nal]G)), the figures for the IC50 on hCXCR4 and on mCXCR4 were 2.8 ± 1.1 nM and 0.8 ± 0.1 nM, respectively.
As to `N=C(N)NCCC[C@@H]1NC(=O)[C@H](CCCNC(=N)N)NC(=O)[C@@H](Cc2ccc(O)cc2)NC(=O)CNC(=O)[C@H](Cc2ccc3ccccc3c2)NC1=O` [FC-131], the “hCXCR4 affinity higher than [^natGa]Pentixafor” value on hCXCR4 (assay conditions of this study) is given as “more than 3 fold”. Moreover, the IC50 (in general, the concentration that inhibits the measured activity by half) at mCXCR4 is 119 ± 69 nM.
As for `C[C@@H]1C(=O)N[C@@H](CCCNC(=N)N)C(=O)N[C@@H](Cc2ccc3ccccc3c2)C(=O)NCC(=O)N[C@H](Cc2ccc(O)c(I)c2)C(=O)N1CCCCCCNC(=N)N` [iodo-CPCR4.3] (cyclo([dTyr(3-I)][dAla(N-(6-guanidinohexyl))]R[2Nal]G)), the IC50 was determined as 5.4 ± 1.5 nM at hCXCR4 and 4.9 ± 1.7 nM on mCXCR4.
Molecule “Ga-Pentixafor: natGa complex of the cyclic pentapeptide Pentixafor, hCXCR4 selective reference ligand” gave an IC50 with mCXCR4 of more than 1000 nM.
“Ga-Pentixafor: natGa complex of the cyclic pentapeptide Pentixafor, hCXCR4 selective reference ligand (YXRXG; Head-to-tail cyclic pentapeptide; The parent CPCR4.3 is printed as cyclo(-D-Tyr1-D-[N-hexyl-6-guanidino]Ala2-Arg3-Nal4-Gly5-); the text states that Pentixafor has D-Orn at position 2 instead of the N-)”: the IC50 with hCXCR4 is 42.4 ± 11.6 nM.
